How the values were obtained:
[1] = test system: adriamycin resistant cell line (ADR-res); experiment: NCI panel, adriamycin resistant cell line, SRB assay; format: cell-based; conditions: Homo sapiens, 48 h
Excerpt: (§1) The evaluation of compounds at the National Cancer Institute in their panel of 60 cell lines provides a wealth of information regarding efficacy in a wide range of tumor types and genetic backgrounds. Included within this panel are cell lines derived from leukemia, melanoma and cancers of the lung, colon, brain, ovary, breast, prostate and kidney. Use of this panel provides a measure of the efficacy of compounds in cells with alterations in many genes that are associated with neoplastic transformation including p53 and Her2/Neu as well as those involved in metabolism and those which confer multi-drug resistance. The data generated in these cell lines with the protocol described below can be used to evaluate the activity of compounds.
(§2) Cells were grown in RPMI-1640 10% FCS and plated in 96 well micro-titer plates at densities ranging from 5,000 to 40,000 cells/well. The plates were incubated for 24 hours at 37° C., 5% CO2 for 24 hours. Media containing twice the desired final concentration of the compound (5 doses spanning 4 logs) was prepared and 100 μl was added to each well containing 100 μl media plus cells to yield the desired final concentration. The plates were then incubated for an additional 48 hours.
(§3) The effect of the compound on cellular viability was determined with the Sulforhodamine B (SRB) assay, which measures total protein. Cells were fixed with cold TCA to a final concentration of 10% and incubated at 4° C. for 60 minutes. The supernatant was discarded and the plates were washed five times with water and air-dried. SRB solution at […] in 1% acetic acid was added to each well and the plates were incubated for 10 minutes at room temperature. The plates were washed five times with 1% acetic acid and air-dried. The bound stain was solubilized with 10 mM trizma base and the absorbance was read on a plate reader at […].

[2] = test system: NCI panel of 60 cell lines; experiment: cells; conditions: Homo sapiens, 60 cell, 48 h, read-out: NCI panel MG-MID (Mean-Graph Mid-point, average IC50 over panel), 48 h, SRB; IC50 <10 nM counted as 10 nM
Excerpt: as §1, §2, §3

[3] = test system: normal human fibroblast, IMR90; experiment: Calcein AM viability assay, IMR90; format: cell-based; conditions: IMR-90, Calcein AM, 72 h
Description: (§4) The potency of the subject kinase inhibitors, as measured by loss of cellular viability, was determined with the Calcein AM assay (Molecular Probes). Calcein AM is a substrate of intracellular esterases, which is cleaved only in viable cells to generate a fluorescent product that can be quantified with a fluorescent plate reader. The fluorescent signal is proportional to the number of viable cells, and thus loss of signal in response to the exposure of cells to the subject kinase inhibitors correlates with a loss of viability. This assay not only distinguishes cell cycle arrest, in which cells may still by viable, from loss of viability, and is thus well suited for the evaluation of the subject kinase inhibitors. A compound that is a potent cytotoxic agent may cause significant loss of cell viability in such an assay.
(§5) Cellular IC50's were determined in the human colorectal carcinoma cell line, HCT-116, and the normal human fibroblast, IMR90. Protein adjusted IC50's were also determined in HCT-116. Results of such viability assays are presented in Table 2 (HCT-116 (viability/protein adjusted) and IMR-90). IC50's (μM, non-protein adjusted) for the viability assay against HCT-116 cells are shown for further compounds of the invention in Table 4.
(§6) HCT-116 or IMR90 cells were recovered from sub-confluent plates by trypsinization and 1,000 or 4,000 cells, respectively, were plated in 24-well dishes and incubated overnight at 37° C., 5% CO2. HCT-116 cells were cultured in RPMI-1640, 10% FCS, and IMR90 cells were cultured in Minimum Essential Medium-alpha, 10% FCS. After overnight incubation to allow adherence, the media was aspirated from each well and replaced with media containing a test compound at a concentration from 0 to 250 nM, spanning a total of 7 doses. The plates were returned to the incubator and cultured for an additional 72 hours (3 days). […] After 72-hours incubation with the test compound, the cells were washed twice with 1×PBS, taking special care to remove all residual buffer.
(§7) A 5 μM Calcein AM solution was prepared by dissolving a 50 μg aliquot of Calcein (Molecular Probes catalog #C3100) in 50 μl DMSO. After the Calcein had completely dissolved (10 minutes at room temperature), it was diluted into 10 ml PBS. Calcein/PBS (0.5 ml) was added to each well. The plates were incubated for 75 minutes at 37° C. (protected from light) and the fluorescent signal was read on a fluorescent plate reader (excitation 485/20 and emission 530/25).

HCT-116 cells [4] = experiment: Clonogenic survival assay with HCT-116 cells; format: cell-based; conditions: Homo sapiens
Description: This assay was used to determine the concentration of a compound that results in irreversible loss of viability after a specified period of exposure. Essentially, cells are exposed to compound for a period of […], and are then transferred to compound-free growth medium. After continued incubation in the compound-free medium for a number of days, the number of colonies recovered is counted as an estimate of the number of surviving cells.
Media (RPMI-1640, 10% FCS, pen/strep) was pre-warmed to 37° C. in a water bath. Cells were incubated and grown at 37° C., 5% CO2. Cells were recovered by trypsinization from sub-confluent plates and counted using a hemocytometer. 1×10^4 cells were plated in 25 mls of media in a 15 cm tissue culture dish. […] were set up for each test compound, and were incubated overnight at 37° C. The compound was diluted into media at 7 concentrations and the media on the cells was replaced with that containing the test compound. Two plates were set up for each concentration of the compound to be tested, as well as two control plates without compound. Plates were incubated as above for […], media was removed and replaced with fresh media, and the plates were incubated an additional 7 days and washed with PBS. Colonies were stained with crystal violet solution (0.4% crystal violet, 20% ethanol) for 5 minutes, washed twice with distilled water, and counted.

HCT-116 cells [5] = experiment: Calcein AM viability assay, HCT-116; format: cell-based; conditions: Homo sapiens
Description: as §4, §5, §6, §7

1A9-PTX10 = experiment: SRB cytotoxicity, tubulin mutated paclitaxel-resistant cells; format: cell-based, human
Description: (§8) In these experiments, the P-glycoprotein expressing NCI-Adr resistant subline (Vickers et al., 1989. Mol Endocrinology 3 (1):157-164) was used. […] Briefly, cells were plated in 96 well dishes 24 hours prior to compound addition. Where noted, they were exposed to verapamil for 4 hours prior to compound addition and then throughout the treatment period (72 hours). The assay was terminated with the addition of cold TCA to a final concentration of 10% and the plates were incubated for one hour at 4° C. The plates were then washed 5 times with water and 100 μl of a Sulforhodamine B solution (4%) was added to each well. The plate was then incubated for 10 minutes at room temperature before removal of unbound dye by washing with 1% acetic acid.
(§9) The tubulin mutated, paclitaxel-resistant human ovarian carcinoma cell line 1A9-PTX10 and its parental paclitaxel-sensitive cell line 1A9 were derived from the A2780 human ovarian carcinoma cell line (J Biol Chem (1997) 272, 17118-17124).

1A9 = experiment: SRB cytotoxicity, 1A9 parental cells; format: cell-based; conditions: Homo sapiens, 72 h
Description: as §8, §9

NCI-Adr resistant = experiment: SRB cytotoxicity, P-glycoprotein expressing cells with and without verapamil; format: cell-based; conditions: for IC50: Homo sapiens, NCI/ADR-RES, 72 h, SRB
Description: as §8

[6] = 24 h exposure, read-out: HCT-116 IC50 Clonogenic 24 h
[7] = 48 h exposure, read-out: HCT-116 IC50 Clonogenic 48 h
[8] = HCT-116, 72 h, Calcein AM, 72 h, read-out: HCT-116 IC50 Viability
[9] = HCT-116, plus 1 mg/ml alpha acidic glycoprotein and 45 mg/ml human serum albumin, read-out: HCT-116 IC50 Protein adjusted
[10] = HCT-116, non-protein adjusted, Table 4, read-out: HCT-116 viability IC50

IC50 (HCT-116 cells [5]; [10]) | SMILES | IC50 [1] | IC50 [2] | IC50 [3] | IC50 (HCT-116 cells [4]; [6]) | IC50 (HCT-116 cells [5]; [8]) | IC50 (HCT-116 cells [5]; [9]) | also measured
< 100 nM | O=C(Nc1cccc2c1C(=O)c1c(-c3ccc(CN4CCCC4)cc3)n[nH]c1-2)NN1CCOCC1 [Compound A51] | – | – | – | – | – | – | –
< 10 nM | O=C(Nc1cccc2c1C(=O)c1c(-c3ccc(CN4CCOCC4)cc3)n[nH]c1-2)NN1CCOCC1 [Compound A47] | – | – | – | – | – | – | –
< 100 nM | O=C(Nc1cccc2c1C(=O)c1c(-c3ccc(CN4CCN(CCO)CC4)cc3)n[nH]c1-2)NN1CCOCC1 [Compound B3] | – | – | – | – | – | – | –
< 100 nM | Cc1cc(OCCCN2CCN(C(C)C)CC2)ccc1-c1[nH]nc2c1C(=O)c1c(NC(=O)NN3CCOCC3)cccc1-2 [Compound A21] | – | – | – | – | – | – | –
< 100 nM | CCOC(=O)C1CCN(Cc2ccc(-c3n[nH]c4c3C(=O)c3c(NC(=O)NN5CCOCC5)cccc3-4)cc2)CC1 [Compound B9] | – | – | – | – | – | – | –
< 10 nM | O=C(Nc1cccc2c1C(=O)c1c-2n[nH]c1-c1ccc(CN2CCN(c3ncccn3)CC2)cc1)NN1CCOCC1 [Compound B15] | – | – | – | – | – | – | –
< 1000 nM | O=C(O)COc1ccc(-c2n[nH]c3c2C(=O)c2c(NC(=O)NN4CCOCC4)cccc2-3)cc1 [Compound A68] | – | – | – | – | – | – | –
< 100 nM | CN1CCN(NC(=O)Nc2cccc3c2C(=O)c2c-3n[nH]c2-c2ccc(O)cc2)CC1 [Compound A15] | – | – | – | – | – | – | –
< 100 nM | O=C(Nc1cccc2c1C(=O)c1c(-c3ccc(CNCc4cccnc4)cc3)n[nH]c1-2)NN1CCOCC1 [Compound B12] | – | – | – | – | – | – | –

The remaining lines, values behind:

SMILES | IC50 (HCT-116 cells [5]; [10]) | IC50 [1] | IC50 [2] | IC50 [3] | IC50 (HCT-116 cells [4]; [6]) | IC50 (HCT-116 cells [5]; [8]) | IC50 (HCT-116 cells [5]; [9]) | also measured
CCCN(CCOc1ccc(-c2[nH]nc3c2C(=O)c2c(NC(=O)NN4CCOCC4)cccc2-3)cc1)CC1CC1 [G] | – | < 1000 nM | < 100 nM | < 100 nM | < 100 nM | < 100 nM | < 1000 nM | IC50 (HCT-116 cells [4]; [7]): < 100 nM
CN1CCN(NC(=O)Nc2cccc3c2C(=O)c2c-3n[nH]c2-c2ccc(OCCN3CCOCC3)cc2)CC1 [Q] | – | < 10000 nM | < 100 nM | < 100 nM | < 100 nM | < 100 nM | < 1000 nM | IC50 (HCT-116 cells [4]; 72 h exposure, read-out: HCT-116 IC50 Clonogenic 72 h): < 100 nM
O=C(Nc1cccc2c1C(=O)c1c-2n[nH]c1-c1ccc(OCCN(CCO)CCO)cc1)NN1CCOCC1 [H] | – | > 10000 nM | < 100 nM | < 100 nM | < 1000 nM | < 100 nM | < 1000 nM | IC50 (HCT-116 cells [4]; [7]): < 100 nM
CC(C)N1CCN(Cc2cc(-c3[nH]nc4c3C(=O)c3c(NC(=O)NN5CCOCC5)cccc3-4)ccc2O)CC1 [K] | – | < 10000 nM | < 100 nM | > 100 nM | < 1000 nM | < 100 nM | < 1000 nM | –
CN1CCN(NC(=O)Nc2cccc3c2C(=O)c2c-3n[nH]c2-c2ccc(OCCN3CC[C@H](O)C3)cc2)CC1 [O] | – | – | – | < 100 nM | < 10 nM | < 100 nM | < 1000 nM | –
O=C(Nc1cccc2c1C(=O)c1c-2n[nH]c1-c1ccc(OP(=O)(O)O)cc1)NN1CCOCC1 [J] | – | – | – | < 100 nM | – | – | – | IC50 (HCT-116 cells [5]; HCT-116, Calcein AM, 72 h, read-out: HCT-116 IC50 Viability): < 1000 nM
CN1CCN(NC(=O)Nc2cccc3c2C(=O)c2c-3n[nH]c2-c2ccc(OCCN3CCC[C@H]3CO)cc2)CC1 [Compound M] | – | – | – | < 100 nM | < 100 nM | < 100 nM | < 1000 nM | –
Cc1cc(-c2[nH]nc3c2C(=O)c2c(NC(=O)NN4CCN(C)CC4)cccc2-3)ccc1OCCN1CCCC1 [P] | – | – | – | < 100 nM | < 100 nM | < 10 nM | – | –
CC(=O)O[C@H]1C(=O)[C@@]2(C)[C@H]([C@H](OC(=O)c3ccccc3)[C@]3(O)C[C@H](OC(=O)[C@H](O)[C@@H](NC(=O)c4ccccc4)c4ccccc4)C(C)=C1C3(C)C)[C@]1(OC(C)=O)CO[C@@H]1C[C@@H]2O [Paclitaxel, reference compound] | – | – | – | – | – | – | – | IC50 (1A9-PTX10; Homo sapiens, 1A9/ptx-10, 72 h, SRB): 235 nM; RR (relative resistance) 1A9-PTX10 vs 1A9 (1A9-PTX10; ratio of mean IC50 resistant/sensitive): 59; IC50 (1A9): 4 nM; IC50 (NCI-Adr resistant; verapamil 12.5 μg/ml): 39 nM; IC50 (NCI-Adr resistant; without verapamil): 3960 nM; RR (relative resistance) NCI-Adr resistant −/+ verapamil (NCI-Adr resistant; ratio of mean IC50): 101.5
CN1CCN(NC(=O)Nc2cccc3c2C(=O)c2c-3n[nH]c2-c2ccc(OCCN(CCO)CCO)cc2)CC1 [N] | – | – | – | > 100 nM | – | < 1000 nM | < 1000 nM | –
Cc1cc(OCCN2CCCC2)ccc1-c1[nH]nc2c1C(=O)c1c(NC(=O)NN3CCN(C)CC3)cccc1-2 [L] | – | > 10000 nM | > 10000 nM | > 100 nM | – | < 100 nM | < 1000 nM | IC50 (HCT-116 cells [4]; [7]): < 100 nM
O=C(Nc1cccc2c1C(=O)c1c-2n[nH]c1-c1ccc(OCCN2CCCC2)cc1)NN1CCOCC1 [Compound I] | – | < 1000 nM | < 100 nM | < 100 nM | < 100 nM | < 100 nM | < 1000 nM | IC50 (HCT-116 cells [4]; [7]): < 100 nM
CN1CCN(NC(=O)Nc2cccc3c2C(=O)c2c-3n[nH]c2-c2ccc(OCCN3CCCC3)cc2)CC1 [F] | – | < 1000 nM | < 100 nM | < 100 nM | < 1000 nM | < 100 nM | < 100 nM | –
